Molecules are shown by their SMILES.

Holding throughout (experiment): combination Emax (second highest fraction inhibited in the dose matrix, 72 h); higher = more inhibition; extreme values may be limits of the assay
Assay [1] concerns ESS-1 (Other Solid Carcinomas). Summed up:
(§1)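 After 24 hours at 37°C and 5% CO2 in 1536-well plates, cells in DMEM/F12 or RPMI plus 10% FBS received two-drug dose matrices for 72 hours. Viability came from CellTiter-Glo 2.0 luminescence and was scaled as inhibition, anchored at 0 by vehicle wells and at 1 by blank wells. Combination Emax is taken as the second-highest inhibition in the matrix, and Bliss excess as the observed combination effect less EA + EB − EA·EB, with EA and EB the single-agent effects.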

In assay [2] the test system is TGBC1TKB (Biliary Tract Carcinoma). Summed up: as §1
Assay [3] deals with NCI-H524 (Small Cell Lung Carcinoma). The method, boiled down:
as §1

For assay [4], the system named is SAS (Oral Cavity Carcinoma). Summed up: as §1
For the next assay, the system named is A673 (Ewing's Sarcoma). Summed up: as §1
For assay [5], the system named is OVCAR-5 (Ovarian Carcinoma). Summed up:
as §1

`O=C(c1cc(Cc2n[nH]c(=O)c3ccccc23)ccc1F)N1CCN(C(=O)C2CC2)CC1` [Olaparib] + COc1nnc2ccc(N3CCC(c4ccc(OCCN5CCN(C)C(=O)[C@H]5C)cc4)CC3)nn12 [AZD5153] (first compound max 10 µM, 7x7, partner max 1 µM): the “combination Emax” value in assay [1] stood at 0.695; in assay [2], 0.24; in assay [3], 0.542; in assay [4], 0.742; with A673 (Ewing's Sarcoma) it was 0.578; in assay [5] it was 0.449.

Regarding `Cc1nc(-c2cn3c(n2)-c2ccc(-c4cnn(C(C)(C)C(N)=O)c4)cc2OCC3)n(C(C)C)n1` [Taselisib] + O=C(Nc1ccc2[nH]nc(-c3ccncc3)c2c1)[C@@H]1CCN(CC(=O)N2CCN(c3ccc(-c4ncccn4)cc3)CC2)C1 [SCH772984] (first compound max 10 µM, 7x7, partner max 5 µM), the “combination Emax” value was found to be 0.923 in assay [1]; 0.663 in assay [2]; 0.411 in assay [3]; 0.945 in assay [4]; 0.705 in the assay with A673 (Ewing's Sarcoma); 0.846 in assay [5].

Take `O=C(c1cc(Cc2n[nH]c(=O)c3ccccc23)ccc1F)N1CCN(C(=O)C2CC2)CC1` [Olaparib] + Cc1c2c(nn1C)CSCc1cc(n(C)n1)CSc1cc(c3ccccc3c1)OCCCc1c(C(=O)O)n(C)c3c-2c(Cl)ccc13 [AZD5991] (first compound max 10 µM, 7x7, partner max 1 µM): the “combination Emax” value in assay [1] came to 0.403; in assay [2] it was 0.157; in assay [3], 0.426; in assay [4], 0.122; in the assay with A673 (Ewing's Sarcoma) it was 0.446; in assay [5] it was 0.122.

On to `CS(=O)(=O)CCNCc1ccc(-c2ccc3ncnc(Nc4ccc(OCc5cccc(F)c5)c(Cl)c4)c3c2)o1` [Lapatinib] + Cn1cnc2c(F)c(Nc3ccc(Br)cc3Cl)c(C(=O)NOCCO)cc21 [Selumetinib] (first compound max 10 µM, 7x7, partner max 10 µM), for which the “combination Emax” value in assay [1] turned out to be 0.705; in assay [2], 0.288; in assay [3], 0.305; in assay [4], 0.677; in the assay with A673 (Ewing's Sarcoma) it was 0.343; in assay [5] it was 0.655.

With `CC1(C)CCC(CN2CCN(c3ccc(C(=O)NS(=O)(=O)c4ccc(NCC5CCOCC5)c([N+](=O)[O-])c4)c(Oc4cnc5[nH]ccc5c4)c3)CC2)=C(c2ccc(Cl)cc2)C1` [Venetoclax] + CS(=O)(=O)CCNCc1ccc(-c2ccc3ncnc(Nc4ccc(OCc5cccc(F)c5)c(Cl)c4)c3c2)o1 [Lapatinib] (first compound max 1 µM, 7x7, partner max 10 µM), the “combination Emax” value in assay [1] amounted to 0.669; in assay [2], 0.134; in assay [3] it was 0.108; in assay [4] it was 0.392; in the assay on A673 (Ewing's Sarcoma) it was 0.207; in assay [5], 0.308.

On to `Cc1c2c(nn1C)CSCc1cc(n(C)n1)CSc1cc(c3ccccc3c1)OCCCc1c(C(=O)O)n(C)c3c-2c(Cl)ccc13` [AZD5991] + Nc1ccn([C@@H]2O[C@H](CO)[C@@H](O)C2(F)F)c(=O)n1 [Gemcitabine] (first compound max 1 µM, 7x7, partner max 0.3 µM), for which the “combination Emax” value was found to be 0.961 in assay [1]; 0.255 in assay [2]; 0.788 in assay [3]; 0.924 in assay [4]; 0.893 in the assay with A673 (Ewing's Sarcoma); 0.422 in assay [5].

For the compound `O=C(c1cc(Cc2n[nH]c(=O)c3ccccc23)ccc1F)N1CCN(C(=O)C2CC2)CC1` [Olaparib] + CN(CC[C@H](CSC1=CC=CC=C1)NC2=C(C=C(C=C2)S(=O)(=O)NC(=O)C3=CC=C(C=C3)N4CCC(CC4)[C@H](C5=CC=CC=C5C6=CC=C(C=C6)Cl)O)S(=O)(=O)C(F)(F)F)CCO [AZD4320] (first compound max 10 µM, 7x7, partner max 1 µM), the “combination Emax” value in assay [1] amounted to 0.787; in assay [2], 0.366; in assay [3], 0.755; in assay [4], 0.205; in the assay on A673 (Ewing's Sarcoma) it was 0.948; in assay [5], 0.182.

On to `C[C@@H]1COCCN1c1cc(C2([S@](C)(=N)=O)CC2)nc(-c2ccnc3[nH]ccc23)n1` [AZD6738] + C1CC(C1)(C(=O)[O-])C(=O)[O-].N.N.[Pt+2] [Carboplatin] (first compound max 10 µM, 7x7, partner max 10 µM), for which the “combination Emax” value turned out to be 0.98 in assay [1]; 0.302 in assay [2]; 0.687 in assay [3]; 0.759 in assay [4]; 0.781 in the assay with A673 (Ewing's Sarcoma); 0.75 in assay [5].

`C[C@@H]1COCCN1c1cc(C2([S@](C)(=N)=O)CC2)nc(-c2ccnc3[nH]ccc23)n1` [AZD6738] + Nc1ccn([C@@H]2O[C@H](CO)[C@@H](O)C2(F)F)c(=O)n1 [Gemcitabine] (first compound max 10 µM, 7x7, partner max 0.3 µM): the “combination Emax” value in assay [1] amounted to 1; in assay [2], 0.583; in assay [3], 0.994; in assay [4], 0.991; in assay [5] it was 0.743.

For the compound `C[C@@H](Oc1cc(-c2cnn(C3CCNCC3)c2)cnc1N)c1c(Cl)ccc(F)c1Cl` [Crizotinib] + Cn1cnc2c(F)c(Nc3ccc(Br)cc3Cl)c(C(=O)NOCCO)cc21 [Selumetinib] (first compound max 10 µM, 7x7, partner max 10 µM), the “combination Emax” value worked out at 0.773 in assay [1]; 0.147 in assay [2]; 0.983 in assay [3]; 0.781 in assay [4]; 0.742 in the assay on A673 (Ewing's Sarcoma); 0.7 in assay [5].

Consider `O=C(c1cc(Cc2n[nH]c(=O)c3ccccc23)ccc1F)N1CCN(C(=O)C2CC2)CC1` [Olaparib] + CC1(C)CCC(CN2CCN(c3ccc(C(=O)NS(=O)(=O)c4ccc(NCC5CCOCC5)c([N+](=O)[O-])c4)c(Oc4cnc5[nH]ccc5c4)c3)CC2)=C(c2ccc(Cl)cc2)C1 [Venetoclax] (first compound max 10 µM, 7x7, partner max 1 µM), for which the “combination Emax” value came out at 0.467 in assay [1]; 0.108 in assay [2]; 0.206 in assay [3]; 0.176 in assay [4]; 0.501 with A673 (Ewing's Sarcoma); 0.0569 in assay [5].

For `C[C@@H](Nc1cc(F)cc(F)c1)c1cc(C(=O)N(C)C)cc2c(=O)cc(N3CCOCC3)oc12` [AZD8186] + CC(=O)c1c(C)c2cnc(Nc3ccc(N4CCNCC4)cn3)nc2n(C2CCCC2)c1=O [Palbociclib] (first compound max 10 µM, 7x7, partner max 10 µM), the “combination Emax” value in assay [1] turned out to be 0.552; in assay [2], 0.534; in assay [3], 0.571; in assay [4] it was 0.609; in the assay on A673 (Ewing's Sarcoma) it was 0.479; in assay [5], 0.55.

These data come from the supplement of paper PMC11061612.
